Article PMC3474771, “Evaluation of 14 Organic Solvents and Carriers for Screening Applications in Zebrafish Embryos and Larvae” (PLoS ONE, 2012)
Where two headings read alike, the source gives them in different places.

What was measured:
[1] = system: zebrafish embryos and larvae; conditions: for Maximum-tolerated concentration (MTC): highest concentration with no phenotypic abnormalities, followed to 9 dpf
Method: Zebrafish embryos of the AB wild-type strain (originally obtained from the Zebrafish International Resource Center, Eugene, Oregon, USA) were raised at 28°C. Zebrafish husbandry, embryo collection, and embryo and larva maintenance were performed as described, [21]. Toxicity assays were standardly performed in 24-well microtiter plates (wrapped with Parafilm to limit solvent evaporation) using 10 embryos per well in 1 ml of 0.3× Danieau's medium (17 mM NaCl, 2 mM KCl, 0.12 mM MgSO4, 1.8 mM Ca(NO3)2 and 1.5 mM HEPES, pH 7.6). Each experiment was repeated 3 times for a total of 30 embryos or larvae analyzed per solvent per developmental staged tested. Data were only recorded for experiments in which the percentage of normal embryos or larvae in the control group was at least 90%. […] In determining the maximum tolerated concentration (MTC) for each solvent and carrier, all post-exposure embryos and larvae were allowed to develop in larva medium to 9 dpf, so as to detect any deleterious effects appearing after this 24-hour window. Solvents and carriers were obtained from the following suppliers: acetone (Chemlab, Zedelgem, Belgium), acetonitrile (Acros Organics, Geel, Belgium), albumin (BSA, Sigma-Aldrich, Bornem, Belgium), butanone (Riedel-de Haën, Seelze, Germany), cyclodextrin (2- hydroxypropyl-beta-cyclodextrin, Sigma-Aldrich), dimethyl formamide (Acros), DMSO (Agros), ethanol (Fisher Scientific, Doornik, Belgium), glycerol (Acros), isopropanol (Chemlab), methanol (Chemlab), polyethylene glycol-400 (Fluka, Bornem, Belgium), propylene glycol (Certa, Eigenbrakel, Belgium), solketal (Merck, Overijse, Belgium). Statistical analyses were done using chi-square in Microsoft Excel.
Twelve solvents and 2 carriers – chosen based solely on their potential utility for the solubilization and delivery of a structurally diverse range of small molecules – were analyzed for their effects on zebrafish embryos and larvae. The solvents included acetone, acetonitrile, butanone, dimethyl formamide, DMSO, ethanol, glycerol, isopropanol, methanol, polyethylene glycol (PEG-400), propylene glycol, and solketal, and the carriers included albumin (BSA) and cyclodextrin (2-hydroxypropyl-beta-cyclodextrin, or HPBCD). […] For this initial study, the effects of a 24-hour exposure to each solvent and carrier was analyzed using embryos and larvae at the following developmental stages: 2–4 cell, 4 hours-post fertilization (hpf), and 1, 2, 3, 4, and 7 days post-fertilization (dpf).

zebrafish = system: zebrafish; design: method as in PMID 18646521; conditions: 0.01% acetone; cited from earlier work
rat embryos = conditions: cited from earlier work
zebrafish embryos = system: zebrafish embryos; design: method as in PMID 16125774; conditions: 2% DMSO; cited from earlier work
[2] = exposure for 24 hours beginning at 1 dpf
[3] = exposure for 24 hours beginning at 2 dpf
[4] = exposure for 24 hours beginning at 2–4 cell stage
[5] = exposure for 24 hours beginning at 3 dpf
[6] = exposure for 24 hours beginning at 4 dpf
[7] = exposure for 24 hours beginning at 4 hpf
[8] = exposure for 24 hours beginning at 5 dpf
[9] = exposure for 24 hours beginning at 7 dpf
[10] = exposure from 1 dpf, at the concentration in parentheses
[11] = exposure from 3 dpf, at the concentration in parentheses
[12] = exposure from 4 dpf, at the concentration in parentheses
[13] = exposure from 5 dpf, at the concentration in parentheses
[14] = exposure from 7 dpf, at the concentration in parentheses
[15] = 24 hours exposure from 2–4 cell stage

| Compound | Lowest concentration at which an average penetrance of at least 50% was observed for the phenotypic effects ([1]; 24 hours exposure from 7 dpf) [%] | Maximum-tolerated concentration (MTC) [1, 2] [%] | Maximum-tolerated concentration (MTC) [1, 3] [%] | Maximum-tolerated concentration (MTC) [1, 4] [%] | Maximum-tolerated concentration (MTC) [1, 5] [%] | Maximum-tolerated concentration (MTC) [1, 6] [%] | Maximum-tolerated concentration (MTC) [1, 7] [%] | Maximum-tolerated concentration (MTC) [1, 8] [%] | Maximum-tolerated concentration (MTC) [1, 9] [%] | Lowest concentration at which an average penetrance of at least 50% was observed for the phenotypic effects ([1]; 24 hours exposure from 1 dpf) [%] | Lowest concentration at which an average penetrance of at least 50% was observed for the phenotypic effects ([1]; 24 hours exposure from 2 dpf) [%] | Lowest concentration at which an average penetrance of at least 50% was observed for the phenotypic effects ([1]; 24 hours exposure from 3 dpf) [%] | Lowest concentration at which an average penetrance of at least 50% was observed for the phenotypic effects ([1]; 24 hours exposure from 4 dpf) [%] | Lowest concentration at which an average penetrance of at least 50% was observed for the phenotypic effects ([1]; 24 hours exposure from 4 hpf) [%] | Lowest concentration at which an average penetrance of at least 50% was observed for the phenotypic effects ([1]; 24 hours exposure from 5 dpf) [%] | Phenotypic effects above MTC after 24 hours (average penetrance at least 50%) [1, 10] | Phenotypic effects above MTC after 24 hours (average penetrance at least 50%) [1, 11] | Phenotypic effects above MTC after 24 hours (average penetrance at least 50%) [1, 12] | Phenotypic effects above MTC after 24 hours (average penetrance at least 50%) [1, 13] | Phenotypic effects above MTC after 24 hours (average penetrance at least 50%) [1, 14] | other results |
| --- | --- | --- | --- | --- | --- | --- | --- | --- | --- | --- | --- | --- | --- | --- | --- | --- | --- | --- | --- | --- | --- |
| CC(C)=O [Acetone, acetone] | 0.5 | 1.5 | 1.5 | 2 | ≥2.5 | 1.5 | 2 | <0.5 | <0.5 |  |  |  |  |  |  |  |  |  |  |  | Maximum-tolerated concentration (MTC) ([1]; exposure for 24 hours beginning at 3 dpf, listed as acetone): ≥ 2.5%; Toxicity of negative controls with solvent (zebrafish): no signs of toxicity |
| CC#N [Acetonitrile, acetonitrile] | 0.5 | 1 |  | <0.5 | 1 |  |  |  |  | 2.5 | 1.5 | 1.5 | 1.5 | 1.5 | 1 | DD PE | PE SB | IC PE | IC PE | IC PE | Effect on cleavage-stage embryos ([1]; 0.5% (lowest concentration examined), after 24 hours of exposure): completely lethal; Phenotypic effects above MTC after 24 hours (average penetrance at least 50%) ([1]; exposure from 4 hpf, at the concentration in parentheses): AP IC IP NO SO; Minimum embryotoxic concentration (rat embryos): 40 mM |
| C[S+](C)[O-] [Dimethyl sulfoxide (DMSO), Dimethyl sulfoxide] | 2 | 2 | 2 | >2.5 | 1.5 | 2 | >2.5 | 2 | 1.5 |  |  | 2.5 |  |  | 2.5 |  | NB SB |  | GG IC IM LP | NB LP | Adverse effects at maximum concentration tested (zebrafish embryos): no adverse effects; MTC / tolerated concentration as summarised in the text for a subset of stages ([1]; BSA: intermediate stages, DMSO: embryos, glycerol: younger larvae and embryos): at least 2.5%; Levels at which abnormalities or lethality begin in at least a subset of treated animals ([1]; larvae): 2–2.5% |
| CO [Methanol, methanol] | 2.5 | 1.5 | >2.5 | 1.5 | 2 | 1 | 1.5 | >2.5 | 2 |  |  | 2.5 |  | 2 |  |  |  |  |  |  | Lowest concentration at which an average penetrance of at least 50% was observed for the phenotypic effects [1, 15]: 2%; Phenotypic effects above MTC after 24 hours (average penetrance at least 50%) ([1]; in vivo): NB LP |
| CC1(C)OCC(CO)O1 (stereo not drawn) [Solketal] | 0.5 | 0.5 | 0.5 | <0.5 | 0.5 | <0.5 | 0.5 | <0.5 | <0.5 | 1 | 1 | 1 | 0.5 | 1 | 0.5 | AP BH IC IM NB PE | AH IC IM HJ PE | BC LP | NB LP SB+ | NB LP | Maximum-tolerated concentration (MTC) ([1]; exposure for 24 hours beginning at 2–4 cell stage, listed as solketal): < 0.5%; Phenotypic effects above MTC after 24 hours (average penetrance at least 50%) ([1]; exposure from 2 dpf, at the concentration in parentheses): AP BH IC PE |
| Albumin (BSA): bovine serum albumin (BSA), carrier |  | <0.5 | 0.5 | <0.5 | 0.5 |  | <0.5 | ≥2.5 | ≥2.5 |  |  | 1.5 | 1.5 | 0.5 |  |  |  | IC PE |  |  | Delay in development relative to control ([1]; 0.5% from 4-cell stage, embryos at 1 dpf, morphologically normal): up to 9 hours; Lowest concentration at which an average penetrance of at least 50% was observed for the phenotypic effects [1, 15]: 0.5%; Maximum-tolerated concentration (MTC) ([1]; exposure for 24 hours beginning at 5 dpf, listed as BSA): ≥ 2.5%; Maximum-tolerated concentration (MTC) ([1]; exposure for 24 hours beginning at 7 dpf, listed as BSA): ≥ 2.5% |
